A value given as a limit tells only on which side of the number the result lay.

The test system of the first assay is Mut6 cells (TD-NSC). As to the kind of experiment: luminescence-based Celltiter-Glo cell viability assay (ATP levels) on Mut6 tumor derived neuronal stem cells. More on the design: species or system mouse. As to conditions: ATP activity as measure of viability, 96 hours. An excerpt:
A mouse colony with 100% incidence of GBM and with conditional knockout of p53, pTEN and NF1 genes (Mut6; glioblastoma) was used to isolate primary neuronal stem cells from GBM tumors cultured in 5% Oxygen and in serum free media with defined growth factors. Primary cells from multiple tumors were pooled for high throughput screening with controls against the University of Texas Southwestern (UTSW) compound file, which encompasses ˜200,000 synthetic compounds that represent a large chemical space from several commercial vendors, including 1200 marketed drugs from the Prestwick Chemical Library®, and 600 compounds that went to pre-clinical tests from the NIH library.
A luminescence-based Celltiter-Glo® assay was performed to measure cell viability, using ATP levels as the readout. In brief, opaque-walled multiwell plates with Mut6 cells in culture medium (25 μl per well, 384-well plates) were prepared. Control wells containing medium without cells were prepared to obtain a value for background luminescence. Test compounds were added to experimental wells, and incubated according to culture protocol. The plate and its contents were incubated at 37° C., 5% […] for 96 hours. An ATP standard curve was generated immediately prior to adding the CellTiter-Glo® Reagent. A volume of CellTiter-Glo® Reagent equal to the volume of cell culture medium present in each well (25 μl of reagent to 25 μl of medium containing cells for a 384-well plate) was added. The contents were mixed for 2 minutes on an orbital shaker to induce cell lysis. The plate was allowed to incubate at room temperature for 10 minutes to stabilize the luminescent signal and luminescence recorded. (e.g. GloMax®, Lumistar, SPECTROstar, PHERAstar FS).
Compound 4C12 served as initial lead compound for analog development and for additional studies. […] See Wager, T T et al, “Moving beyond rules: the development of a central nervous system multi-parameter-optimization (CNS MPO) approach to enable alignment of drug-like properties,” ACS Chem. Neurosci. 1(6): 435-49 (2010). IC50 curves for the analog compounds plotted as ATP activity (y axis, a measure of viability) vs. concentration (nM) (x-axis) are shown in FIG. 9.
With `CC(C)(C)OC(=O)N1CCN(CCNC(=O)c2ccc(Sc3ccc(F)cc3)c([N+](=O)[O-])c2)CC1` [DS-2-127, Tert-butyl 4-(2-(4-((4-fluorophenyl)thio)-3-nitrobenzamido)ethyl)piperazine-1-carboxylate], the “EC50 (TD-NSC) (nM)” value is given as “Not Active”.

The same assay, now with this note: Mus musculus, 96 h, ATP activity as measure of viability, 96 hours; read-out: EC50 (TD-NSC).
Regarding `O=C(NCC1CCCO1)c1ccc(Sc2ccc(F)cc2)c([N+](=O)[O-])c1` (stereo not shown) [DS-1-275, 4-((4-fluorophenyl)thio)-3-nitro-N-((tetrahydrofuran-2-yl)methyl)benzamide], the EC50 is above 1000 nM.
On to `CCN1CCCC1COC(=O)c1ccc(Sc2ccc(F)cc2)c([N+](=O)[O-])c1` (stereo not shown) [DS-1-287, (1-ethylpyrrolidin-2-yl)methyl 4-((4-fluorophenyl)thio)-3-nitrobenzoate], for which the EC50 is above 1000 nM.
As to `CCN1CCCC1CNC(=O)c1ccc(Sc2ccc(Cl)c(Cl)c2)c([N+](=O)[O-])c1` (stereo not shown) [DS-1-291, 4-((3,4-dichlorophenyl)thio)-N-((1-ethylpyrrolidin-2-yl)methyl)-3-nitrobenzamide], the EC50 was determined as 93 nM.
As for `CCN1CCCC1CNC(=O)c1ccc(Sc2cccc(Cl)c2)c([N+](=O)[O-])c1` (stereo not shown) [DS-1-295, 4-((3-chlorophenyl)thio)-N-((1-ethylpyrrolidin-2-yl)methyl)-3-nitrobenzamide], the concentration for a half-maximal effect (EC50) was 70 nM.
As for `CCN1CCCC1CNC(=O)c1ccc(Sc2ccc(C)c(C)c2)c([N+](=O)[O-])c1` (stereo not shown) [DS-1-299, 4-((3,4-dimethylphenyl)thio)-N-((1-ethylpyrrolidin-2-yl)methyl)-3-nitrobenzamide], the EC50 was 169 nM.
Consider `CCN1CCCC1CNC(=O)c1ccc(Sc2cccc(C)c2)c([N+](=O)[O-])c1` (stereo not shown) [DS-1-305, N-((1-ethylpyrrolidin-2-yl)methyl)-3-nitro-4-(m-tolylthio)benzamide], for which the EC50 amounted to 86 nM.
As to `C#CCN(CC)CCNC(=O)c1ccc(Sc2ccc(F)cc2)c([N+](=O)[O-])c1` [DS-2-035, N-(2-(ethyl(prop-2-yn-1-yl)amino)ethyl)-4-((4-fluorophenyl)thio)-3-nitrobenzamide], the EC50 is 49 nM.
Take `CCN1CCCC1CNC(=O)c1ccc(C(O)c2ccc(F)cc2)c([N+](=O)[O-])c1` (stereo not shown) [DS-2-051, N-((1-ethylpyrrolidin-2-yl)methyl)-4-((4-fluorophenyl)(hydroxy)methyl)-3-nitrobenzamide]: the EC50 is 564 nM.
As to `CCN1CCCC1CNS(=O)(=O)c1ccc(Sc2ccc(F)cc2)c([N+](=O)[O-])c1` (stereo not shown) [DS-2-055, N-((1-ethylpyrrolidin-2-yl)methyl)-4-((4-fluorophenyl)thio)-3-nitrobenzenesulfonamide], the EC50 was 155 nM.
In the case of `CCN1CCCC1CNC(=O)c1ccc(C(=O)c2ccc(F)cc2)c([N+](=O)[O-])c1` (stereo not shown) [DS-2-057, N-((1-ethylpyrrolidin-2-yl)methyl)-4-(4-fluorobenzoyl)-3-nitrobenzamide], the EC50 is 233 nM.
Same read-out and setting: the same measure for `CCN1CCCC1CN(C)C(=O)c1ccc(Sc2ccc(F)cc2)c([N+](=O)[O-])c1` (stereo not shown) [DS-2-061, N-((1-ethylpyrrolidin-2-yl)methyl)-4-((4-fluorophenyl)thio)-N-methyl-3-nitrobenzamide]: 15 nM; for `C#CCN(CC)CCNC(=O)c1ccc(Sc2ccc(N=[N+]=[N-])cc2)c([N+](=O)[O-])c1` [DS-2-091, 4-((4-azidophenyl)thio)-N-(2-(ethyl(prop-2-yn-1-yl)amino)ethyl)-3-nitrobenzamide]: above 1000 nM; for `C#CCOc1ccc(Sc2ccc(C(=O)NCCN(CC)Cc3ccc(C(=O)c4ccccc4)cc3)cc2[N+](=O)[O-])cc1` [DS-2-093, N-(2-((4-benzoylbenzyl)(ethyl)amino)ethyl)-3-nitro-4-((4-(prop-2-yn-1-yloxy)phenyl)thio)benzamide]: above 1000 nM.
Turning to `C#CCN(CC)CCNC(=O)c1ccc(Oc2ccc(C(=O)c3ccccc3)cc2)c([N+](=O)[O-])c1` [DS-2-097, 4-(4-benzoylphenoxy)-N-(2-(ethyl(prop-2-yn-1-yl)amino)ethyl)-3-nitrobenzamide], the EC50 was above 1000 nM.
In the case of `C#CCN(CC)CCNC(=O)c1ccc(Oc2ccccc2C(=O)c2ccccc2)c([N+](=O)[O-])c1` [DS-2-101, 4-(2-benzoylphenoxy)-N-(2-(ethyl(prop-2-yn-1-yl)amino)ethyl)-3-nitrobenzamide], the EC50 is above 1000 nM.
As to `C#CCN(CC)CCNC(=O)c1ccc(C(=O)c2ccc(F)cc2)c([N+](=O)[O-])c1` [DS-2-107, N-(2-(ethyl(prop-2-yn-1-yl)amino)ethyl)-4-(4-fluorobenzoyl)-3-nitrobenzamide], the EC50 was above 1000 nM.
On to `C#CCOc1ccc(Sc2ccc(C(=O)NCCNCC)cc2[N+](=O)[O-])cc1` [DS-2-111, N-(2-(ethylamino)ethyl)-3-nitro-4-((4-(prop-2-yn-1-yloxy)phenyl)thio)benzamide], for which the EC50 is above 1000 nM.
For `CCN1CCCC1CNC(=O)c1ccc([N+](=O)[O-])c(Sc2ccc(F)cc2)c1` (stereo not shown) [DS-2-115, N-((1-ethylpyrrolidin-2-yl)methyl)-3-((4-fluorophenyl)thio)-4-nitrobenzamide], the EC50 worked out at 60 nM.
Take `CN1CCN(CCNC(=O)c2ccc(Sc3ccc(F)cc3)c([N+](=O)[O-])c2)CC1` [DS-2-121, 4-((4-fluorophenyl)thio)-N-(2-(4-methylpiperazin-1-yl)ethyl)-3-nitrobenzamide]: the EC50 turned out to be 287 nM.
Consider `O=C(NCCN1CCCCC1)c1ccc(Sc2ccc(F)cc2)c([N+](=O)[O-])c1` [DS-2-125, 4-((4-fluorophenyl)thio)-3-nitro-N-(2-(piperidin-1-yl)ethyl)benzamide], for which the EC50 was 50 nM.
As to `O=C(NCCN1CCNCC1)c1ccc(Sc2ccc(F)cc2)c([N+](=O)[O-])c1` [DS-2-129, 4-((4-fluorophenyl)thio)-3-nitro-N-(2-(piperazin-1-yl)ethyl)benzamide], the EC50 is 141 nM.
In the case of `CCN1CCCC1CNC(=O)c1ccc(Sc2ccc(Cl)c(C(F)(F)F)c2)c([N+](=O)[O-])c1` (stereo not shown) [DS-2-143, 4-((4-chloro-3-(trifluoromethyl)phenyl)thio)-N-((1-ethylpyrrolidin-2-yl)methyl)-3-nitrobenzamide], the EC50 came out at 129 nM.
The same measure, in the same setting: the same measure for `CCN1CCCC1CNC(=O)c1ccc(Sc2cccc(N)c2)c([N+](=O)[O-])c1` (stereo not shown) [JCH-109, 4-((3-aminophenyl)thio)-N-((1-ethylpyrrolidin-2-yl)methyl)-3-nitrobenzamide]: 301 nM; for `CCN1CCCC1CNC(=O)c1ccc(Sc2ccccc2Cl)c([N+](=O)[O-])c1` (stereo not shown) [JCH-111, 4-((2-chlorophenyl)thio)-N-((1-ethylpyrrolidin-2-yl)methyl)-3-nitrobenzamide]: 119 nM; for `CCN1CCCC1CNC(=O)c1ccc(Sc2ccccc2C)c([N+](=O)[O-])c1` (stereo not shown) [JCH-114, N-((1-ethylpyrrolidin-2-yl)methyl)-3-nitro-4-(o-tolylthio)benzamide]: 78 nM.
On to `CCN1CCCC1CNC(=O)c1ccc(Sc2ccccc2OC)c([N+](=O)[O-])c1` (stereo not shown) [JCH-117, N-((1-ethylpyrrolidin-2-yl)methyl)-4-((2-methoxyphenyl)thio)-3-nitrobenzamide], for which the EC50 was found to be 119 nM.
Take `CCN1CCCC1CNC(=O)c1ccc(Sc2ccc(Cl)cc2Cl)c([N+](=O)[O-])c1` (stereo not shown) [JCH-120, 4-((2,4-dichlorophenyl)thio)-N-((1-ethylpyrrolidin-2-yl)methyl)-3-nitrobenzamide]: the 50% effective concentration (EC50) is 68 nM.
As to `CCN1CCCC1CNC(=O)c1ccc(Sc2cc(Cl)cc(Cl)c2)c([N+](=O)[O-])c1` (stereo not shown) [JCH-124, 4-((3,5-dichlorophenyl)thio)-N-((1-ethylpyrrolidin-2-yl)methyl)-3-nitrobenzamide], the EC50 was 510 nM.
On to `CCN1CCCC1CNC(=O)c1ccc(Sc2ccc3ccccc3n2)c([N+](=O)[O-])c1` (stereo not shown) [JCH-127, N-((1-ethylpyrrolidin-2-yl)methyl)-3-nitro-4-(quinolin-2-ylthio)benzamide], for which the EC50 was found to be 125 nM.
For the compound `CCN1CCCC1CNC(=O)c1ccc(Sc2cccc(O)c2)c([N+](=O)[O-])c1` (stereo not shown) [JCH-140, N-((1-ethylpyrrolidin-2-yl)methyl)-4-((3-hydroxyphenyl)thio)-3-nitrobenzamide], the EC50 was 139 nM.
The same measure, in the same setting: the same measure for `CCN1CCCC1CNC(=O)c1ccc(Sc2ccccc2O)c([N+](=O)[O-])c1` (stereo not shown) [JCH-143, N-((1-ethylpyrrolidin-2-yl)methyl)-4-((2-hydroxyphenyl)thio)-3-nitrobenzamide]: 160 nM.
On the same count and under the same terms, under `CCN1CCCC1CNC(=O)c1ccc(Sc2cccc(OC)c2)c([N+](=O)[O-])c1` (stereo not shown) [JCH-146, N-((1-ethylpyrrolidin-2-yl)methyl)-4-((3-methoxyphenyl)thio)-3-nitrobenzamide] stands 185 nM; under `CCN1CCCC1CNC(=O)c1ccc(Sc2ccccc2CO)c([N+](=O)[O-])c1` (stereo not shown) [JCH-149, N-((1-ethylpyrrolidin-2-yl)methyl)-4-((2-(hydroxymethyl)phenyl)thio)-3-nitrobenzamide], 154 nM.

These data come from patent US11548894B2, “Benzamide or benzamine compounds useful as anticancer agents for the treatment of human cancers” (The Board of Regents of the University of Texas System, priority 2015, dated 2023).
